# Measured values reported in patent US9844226B2 (AJINOMOTO CO., INC., priority 2009, dated 2017).
# Target: T1, human CaSR (Homo sapiens, UniProt P41180, E1011Q)
# T1 construct: expressed in transfected cells; host or cells: 293E cells (EBNA1-expressing HEK293 cells, ATCC No. CRL-10852), transient transfection with Fugene6
# T1 sequence (P41180 20-1078 E1011Q): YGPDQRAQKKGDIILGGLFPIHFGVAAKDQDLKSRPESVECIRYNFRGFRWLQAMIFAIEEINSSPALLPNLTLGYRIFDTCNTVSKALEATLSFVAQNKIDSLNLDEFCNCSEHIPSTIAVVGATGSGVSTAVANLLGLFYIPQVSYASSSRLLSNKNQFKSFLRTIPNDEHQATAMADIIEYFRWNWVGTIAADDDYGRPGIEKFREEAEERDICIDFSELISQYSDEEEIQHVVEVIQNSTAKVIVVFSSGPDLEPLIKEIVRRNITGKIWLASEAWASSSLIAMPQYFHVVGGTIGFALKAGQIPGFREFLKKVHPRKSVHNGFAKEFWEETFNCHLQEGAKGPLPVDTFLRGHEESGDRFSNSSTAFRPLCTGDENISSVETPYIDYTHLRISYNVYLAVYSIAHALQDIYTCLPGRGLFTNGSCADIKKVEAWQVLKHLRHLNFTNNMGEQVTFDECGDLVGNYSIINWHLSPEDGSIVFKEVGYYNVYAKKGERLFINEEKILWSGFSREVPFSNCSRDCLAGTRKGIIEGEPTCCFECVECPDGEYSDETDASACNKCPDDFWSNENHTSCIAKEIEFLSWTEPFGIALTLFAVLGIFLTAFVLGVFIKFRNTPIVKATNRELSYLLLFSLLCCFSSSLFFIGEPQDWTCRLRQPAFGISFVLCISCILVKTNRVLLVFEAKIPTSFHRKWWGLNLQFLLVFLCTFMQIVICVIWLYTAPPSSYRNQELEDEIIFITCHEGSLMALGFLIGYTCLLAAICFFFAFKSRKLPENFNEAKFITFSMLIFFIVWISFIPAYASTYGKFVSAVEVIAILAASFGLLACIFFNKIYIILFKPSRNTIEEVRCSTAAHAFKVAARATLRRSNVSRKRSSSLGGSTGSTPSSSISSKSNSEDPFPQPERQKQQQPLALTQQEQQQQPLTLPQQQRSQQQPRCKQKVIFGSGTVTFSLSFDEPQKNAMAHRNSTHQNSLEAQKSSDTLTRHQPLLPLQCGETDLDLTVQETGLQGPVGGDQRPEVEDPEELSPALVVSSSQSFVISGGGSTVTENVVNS
# Experiment: Evaluation of CaSR agonist activity (Ca2+ fluorescence, EC50)
# Assay type: cell-based
# Conditions: comparison with other dipeptides
# Protocol: The cells were seeded into a F25 flask at 3×10^6 cells/10 mL, and allowed to stand in a CO2 incubator (5% CO2, 37° C.) for 24 hours. Then, the cells were transfected with the human CaSR-expression plasmid hCaSR/pcDNA3.1 by using a transfection reagent Fugene6 (available from Roche Company). The cells were placed in a CO2 incubator for 6 to 7 hours, and then the cells were harvested by using DMEM/Ham's-F12 containing 10% fetal calf serum. Then, the cells were seeded into a poly-D-lysine-coated 96-well plate (BD-Biocoat) at 70,000 cells/well.
# The plate was allowed to stand over 24 hours in a CO2 incubator, and then the culture medium was removed from the 96-well plate into which the cells were seeded. […] Then, the indicator was incorporated into the cells by allowing the plate to stand at 37° C. for one hour, and then at room temperature for 10 minutes.
# Method for the Determination of EC50:
# The differences between the maximum value and minimum value of the fluorescent intensity (RFU (Max-Min)) were determined by automatic calculation of FLEX Station before and after the addition of the compound. The percentage of activities was calculated, with the RFU (Max-Min) at the time when the maximum concentration of the compound added was defined to be 100%, and the RFU (Max-Min) at the time when the 0.1% BSA-containing assay buffer containing no test compound was defined to be 0%.
structure (smiles),measurement,value
CC[C@H](NC(=O)CC[C@H](N)C(=O)O)C(=O)O,CaSR effect and activity (in words),strong CaSR effect and activity comparable to that of γ-Glu-Cys
